Data published in US9315467B2, “Compounds for nonsense suppression, and methods for their use” (priority 2004, dated 2016).

| melting point | SMILES |
| --- | --- |
| > 300 °C | COc1ccc(-c2ncnc(-c3ccc(C(=O)O)cc3)n2)cc1 [Compound 53, 4-[4-(4-Methoxy-phenyl)-[1,3,5]triazin-2-yl]-benzoic acid] |
| 291 to 294 °C | O=C(O)c1ccc(-c2ccnc(-c3cccc(Cl)c3)n2)cc1 [Compound 20, 4-[2-(3-Chloro-phenyl)-pyrimidin-4-yl]-benzoic acid] |
| 243 to 244 °C | COc1ccc(-c2ccnc(-c3cccc(C(=O)O)c3)n2)cc1 [Compound 71, 3-[4-(4-Methoxy-phenyl)-pyrimidin-2-yl]-benzoic acid] |
| 234 to 236 °C | O=C(O)c1ccc(-c2nccc(-c3ccccc3F)n2)cc1 [Compound 65, 4-[4-(2-Fluoro-phenyl)-pyrimidin-2-yl]-benzoic acid] |
| 293 to 296 °C | O=C(O)c1ccc(-c2nccc(-c3ccc(-c4ccccc4)cc3)n2)cc1 [Compound 39, 4-(4-Biphenyl-4-yl-pyrimidin-2-yl)-benzoic acid] |
| > 310 °C | Cc1ccc(-c2nccc(-c3ccc(C(=O)O)cc3)n2)cc1 [Compound 10, 4-(2-p-Tolyl-pyrimidin-4-yl)-benzoic acid] |
| > 300 °C | COc1ccc(-c2nccc(-c3ccc(C(=O)O)cc3)n2)cc1 [Compound 30, 4-[2-(4-Methoxy-phenyl)-pyrimidin-4-yl]-benzoic acid] |
| 249 to 252 °C | O=C(O)c1ccc(-c2nccc(-c3cccc(F)c3)n2)cc1 [Compound 38, 4-[4-(3-Fluoro-phenyl)-pyrimidin-2-yl]-benzoic acid] |
| 201 to 203 °C | Cc1ccc(-c2cc(-c3cccc(C(=O)O)c3)ncn2)cc1 [Compound 3, 3-(6-p-Tolyl-pyrimidin-4-yl)-benzoic acid] |
| 272 to 274 °C | O=C(O)c1ccc(-c2nccc(-c3ccc4c(c3)OCCO4)n2)cc1 [Compound 40, 4-[4-(2,3-Dihydro-benzo[1,4]dioxin-6-yl)-pyrimidin-2-yl]-benzoic acid] |
| > 300 °C | O=C(O)c1ccc(-c2ccnc(-c3ccccc3F)n2)cc1 [Compound 23, 4-[2-(2-Fluoro-phenyl)-pyrimidin-4-yl]-benzoic acid] |
| 299 to 302 °C | O=C(O)c1ccc(-c2ccnc(-c3ccc(OC(F)(F)F)cc3)n2)cc1 [Compound 27, 4-[2-(4-Trifluoromethoxy-phenyl)-pyrimidin-4-yl]-benzoic acid] |
| 288 to 291 °C | Cc1ccc(-c2ccnc(-c3ccc(C(=O)O)cc3)c2)cc1 [Compound 13, 4-(4-p-Tolyl-pyridin-2-yl)-benzoic acid] |
| > 305 °C | O=C(O)c1ccc(-c2nccc(-c3ccc(-n4ccnc4)cc3)n2)cc1 [Compound 41, 4-[4-(4-Imidazol-1-yl-phenyl)-pyrimidin-2-yl]-benzoic acid] |
| 302 to 305 °C | O=C(O)c1ccc(-c2nccc(-c3ccc(Br)cc3)n2)cc1 [Compound 33, 4-[4-(4-Bromo-phenyl)-pyrimidin-2-yl]-benzoic acid] |
| 288 to 290 °C | Cc1ccc(-c2ncnc(-c3ccc(C(=O)O)cc3)n2)cc1 [Compound 46, 4-(4-p-Tolyl-[1,3,5]triazin-2-yl)-benzoic acid] |
| 251 to 252 °C | O=C(O)c1ccc(-c2ccnc(-c3ccccc3C(F)(F)F)n2)cc1 [Compound 31, 4-[2-(2-Trifluoromethyl-phenyl)-pyrimidin-4-yl]-benzoic acid] |
| 271 to 273 °C | O=C(O)c1cccc(-c2nccc(-c3ccc(C(F)(F)F)cc3)n2)c1 [Compound 78, 3-[4-(4-Trifluoromethyl-phenyl)-pyrimidin-2-yl]-benzoic acid] |
| 253 to 255 °C | O=C(O)c1cccc(-c2nccc(-c3cccc(F)c3)n2)c1 [Compound 74, 3-[4-(3-Fluoro-phenyl)-pyrimidin-2-yl]-benzoic acid] |
| 220 to 222 °C | Cc1cccc(-c2ccnc(-c3ccc(C(=O)O)cc3)n2)c1 [Compound 64, 4-(4-m-Tolyl-pyrimidin-2-yl)-benzoic acid] |
| 234 to 236 °C | O=C(O)c1ccc(-c2nccc(-c3ccc(OC(F)(F)F)cc3)n2)cc1 [Compound 34, 4-[4-(4-Trifluoromethoxy-phenyl)-pyrimidin-2-yl]-benzoic acid] |
| > 310 °C | O=C(O)c1cccc(-c2nccc(-c3ccc(-n4ccnc4)cc3)n2)c1 [Compound 79, 3-[4-(4-Imidazol-1-yl-phenyl)-pyrimidin-2-yl]-benzoic acid] |
| 281 to 283 °C | CN(C)c1ccc(-c2ccnc(-c3cccc(C(=O)O)c3)n2)cc1 [Compound 60, 3-[4-(4-Dimethylamino-phenyl)-pyrimidin-2-yl]-benzoic acid] |
| 282 to 285 °C | O=C(O)c1ccc(-c2nccc(-c3ccc(C(F)(F)F)cc3)n2)cc1 [Compound 66, 4-[4-(4-Trifluoromethyl-phenyl)-pyrimidin-2-yl]-benzoic acid] |
| > 300 °C | O=C(O)c1ccc(-c2ccnc(-c3ccc(Cl)cc3)n2)cc1 [Compound 22, 4-[2-(4-Chloro-phenyl)-pyrimidin-4-yl]-benzoic acid] |

| melting point | SMILES |
| --- | --- |
| 239 to 241 °C | O=C(O)c1cccc(-c2nccc(-c3ccc4c(c3)OCCO4)n2)c1 [Compound 42, 3-[4-(2,3-Dihydro-benzo[1,4]dioxin-6-yl)-pyrimidin-2-yl]-benzoic acid] |
| 296 to 299 °C | O=C(O)c1cccc(-c2nccc(-c3ccc(-c4ccccc4)cc3)n2)c1 [Compound 75, 3-(4-Biphenyl-4-yl-pyrimidin-2-yl)-benzoic acid] |
| > 300 °C | O=C(O)c1ccc(-c2ccnc(-c3ccc(F)cc3)n2)cc1 [Compound 18, 4-[2-(4-Fluoro-phenyl)-pyrimidin-4-yl]-benzoic acid] |
| 293 to 296 °C | CC(C)(C)c1ccc(-c2nccc(-c3ccc(C(=O)O)cc3)n2)cc1 [Compound 17, 4-[2-(4-tert-Butyl-phenyl)-pyrimidin-4-yl]-benzoic acid] |
| 300 to 303 °C | O=C(O)c1ccc(-c2ccnc(-c3cccc(F)c3)n2)cc1 [Compound 25, 4-[2-(3-Fluoro-phenyl)-pyrimidin-4-yl]-benzoic acid] |
| 217 to 219 °C | Cc1cccc(-c2ccnc(-c3cccc(C(=O)O)c3)n2)c1 [Compound 76, 3-(4-m-Tolyl-pyrimidin-2-yl)-benzoic acid] |
| 241 to 243 °C | O=C(O)c1cccc(-c2nccc(-c3ccc(OC(F)(F)F)cc3)n2)c1 [Compound 69, 3-[4-(4-Trifluoromethoxy-phenyl)-pyrimidin-2-yl]-benzoic acid] |
| 286 to 289 °C | Cc1ccc(-c2cc(-c3ccc(C(=O)O)cc3)ccn2)cc1 [Compound 12, 4-(2-p-Tolyl-pyridin-4-yl)-benzoic acid] |
| 260 to 262 °C | Cc1ccc(-c2cncc(-c3ccc(C(=O)O)cc3)c2)cc1 [Compound 15, 4-(5-p-Tolyl-pyridin-3-yl)-benzoic acid] |
| 270 to 273 °C | COc1cccc(-c2nccc(-c3ccc(C(=O)O)cc3)n2)c1 [Compound 16, 4-[2-(3-Methoxy-phenyl)-pyrimidin-4-yl]-benzoic acid] |
| 198 to 200 °C | Cc1ccccc1-c1nccc(-c2ccc(C(=O)O)cc2)n1 [Compound 26, 4-(2-o-Tolyl-pyrimidin-4-yl)-benzoic acid] |
| 258 to 261 °C | O=C(O)c1ccc(-c2ccnc(-c3ccccc3OC(F)(F)F)n2)cc1 [Compound 61, 4-[2-(2-Trifluoromethoxy-phenyl)-pyrimidin-4-yl]-benzoic acid] |
| 167 to 169 °C | CC(C)c1ccc(-c2nccc(-c3cccc(C(N)=O)c3)n2)cc1 [Compound 4, 3-[2-(4-Isopropyl-phenyl)-pyrimidin-4-yl]-benzamide] |
| 269 to 272 °C | CCOc1ccc(-c2ncnc(-c3cccc(C(=O)O)c3)n2)cc1 [Compound 45, 3-[4-(4-Ethoxy-phenyl)-[1,3,5]triazin-2-yl]-benzoic acid] |
| 307 to 309 °C | COc1ccc(-c2ncnc(-c3cccc(C(=O)O)c3)n2)cc1 [Compound 48, 3-[4-(4-Methoxy-phenyl)-[1,3,5]triazin-2-yl]-benzoic acid] |
| 271 to 273 °C | O=C(O)c1ccc(-c2nccc(-c3cccc(C(F)(F)F)c3)n2)cc1 [Compound 63, 4-[4-(3-Trifluoromethyl-phenyl)-pyrimidin-2-yl]-benzoic acid] |
| 252 to 253 °C | Cc1ccc(-c2ccnc(-c3cccc(C(=O)O)c3)n2)cc1 [Compound 73, 3-(4-p-Tolyl-pyrimidin-2-yl)-benzoic acid] |
| 287 to 289 °C | Cc1ccc(-c2ccnc(-c3ccc(C(=O)O)cc3)n2)cc1 [Compound 35, 4-(4-p-Tolyl-pyrimidin-2-yl)-benzoic acid] |
| 271 to 273 °C | O=C(O)c1cccc(-c2nccc(-c3cccc(C(F)(F)F)c3)n2)c1 [Compound 77, 3-[4-(3-Trifluoromethyl-phenyl)-pyrimidin-2-yl]-benzoic acid] |
| 266 to 269 °C | O=C(O)c1cccc(-c2ncnc(-c3ccc(F)cc3)n2)c1 [Compound 44, 3-[4-(4-Fluoro-phenyl)-[1,3,5]triazin-2-yl]-benzoic acid] |
| 243 to 245 °C | CC(C)c1ccc(-c2ccnc(-c3ccc(C(=O)O)cc3)n2)cc1 [Compound 36, 4-[4-(4-Isopropyl-phenyl)-pyrimidin-2-yl]-benzoic acid] |
| > 300 °C | O=C(O)c1ccc(-c2ccnc(-c3cccc(OC(F)(F)F)c3)n2)cc1 [Compound 19, 4-[2-(3-Trifluoromethoxy-phenyl)-pyrimidin-4-yl]-benzoic acid] |
| 305 to 307 °C | Cc1cc(-c2ccc(F)cc2)nc(-c2cccc(C(=O)O)c2)n1 [Compound 56, 3-[4-(4-Fluoro-phenyl)-6-methyl-pyrimidin-2-yl]-benzoic acid] |
| 292 to 295 °C | CN(C)c1ccc(-c2ccnc(-c3ccc(C(=O)O)cc3)n2)cc1 [Compound 59, 4-[4-(4-Dimethylamino-phenyl)-pyrimidin-2-yl]-benzoic acid] |
| 289 to 291 °C | O=C(O)c1ccc(-c2nccc(-c3ccc(N4CCOCC4)cc3)n2)cc1 [Compound 67, 4-[4-(4-Morpholin-4-yl-phenyl)-pyrimidin-2-yl]-benzoic acid] |
